US12077483B2, “Modified amine lipids” (Intellia Therapeutics, Inc., priority 2018, dated 2024)

Key:
mouse TTR gene = assay: In vivo editing in mouse liver, LNP with Cas9 mRNA and sgRNA G282, NGS; details: Table 3; guide G282; CD-1 female mice, 0.1 mpk i.v., liver at 6 or 7 days; Exp. 1, 8, 9, 10
Experimental: (§1) LNPs were prepared using various amine lipids in a 4-component lipid system consisting of an ionizable lipid (e.g. an amine lipid), DSPC, cholesterol and PEG-2k-DMG. In assays for percent liver editing in mice, Cas9 mRNA and chemically modified sgRNA targeting a mouse sequence were formulated in LNPs, at either a 1:1 w/w ratio or a 1:2 w/w ratio.
(§2) The lipid components were dissolved in 100% ethanol with the lipid component molar ratios described below. The chemically modified sgRNA and Cas9 mRNA were combined and dissolved in 25 mM citrate, 100 mM NaCl, pH 5.0, resulting in a concentration of total RNA cargo of approximately 0.45 mg/mL. The LNPs were formulated with an N/P ratio of about 6, with the ratio of chemically modified sgRNA: Cas9 mRNA at either a 1:1 or 1:2 w/w ratio as described below.
(§3) CD-1 female mice, ranging from 6-10 weeks of age were used in each study. Animals were weighed and grouped according to body weight for preparing dosing solutions based on group average weight. LNPs were dosed via the lateral tail vein in a volume of 0.2 mL per animal (approximately 10 mL per kilogram body weight). The animals were periodically observed for adverse effects for at least 24 hours post dose.
(§4) For studies measuring in vivo editing in liver, CD-1 female mice were dosed at 0.1 mpk unless otherwise noted. Animals were euthanized at 6 or 7 days by exsanguinationvia cardiac puncture under isoflourane anesthesia. Liver tissue was collected from each animal for DNA extraction and analysis. Blood was collected into serum separator tubes or into tubes containing buffered sodium citrate for plasma as described herein. Cohorts of mice were measured for editing by Next-Generation Sequencing (NGS).
(§5) In brief, to quantitatively determine the efficiency of editing at the target location in the genome, genomic DNA was isolated and deep sequencing was utilized to identify the presence of insertions and deletions introduced by gene editing.
(§6) PCR primers were designed around the target site (e.g., B2M), and the genomic area of interest was amplified. Additional PCR was performed according to the manufacturer's protocols (Illumina) to add the necessary chemistry for sequencing. The amplicons were sequenced on an Illumina MiSeq instrument. The reads were aligned to the relevant reference genome (e.g., GRCm38) after eliminating those having low quality scores. The resulting files containing the reads were mapped to the reference genome (BAM files), where reads that overlapped the target region of interest were selected and the number of wild type reads versus the number of reads which contain an insertion, substitution, or deletion was calculated.
(§7) The editing percentage (e.g., the “editing efficiency” or “percent editing”) is defined as the total number of sequence reads with insertions or deletions over the total number of sequence reads, including wild type.
(§8) We assessed in vivo editing efficiency for materials delivered with formulations including various amine lipid compounds. Editing was measured using either G282 (SEQ ID No: 1) which targets the mouse TTR gene or G650 (SEQ ID No. 2) which targets the mouse B2M gene. Lipids described above were assessed for efficacy through in vivo editing experiments. LNPs were formulated at a 1:1 w/w ratio of sgRNA to Cas9 mRNA, and at an N/P ratio of about 6. Molar concentrations of lipids in the lipid component of the LNPs are expressed as mol % amine lipid/DSPC/cholesterol/PEG-2k-DMG, e.g. 50/10/38.5/1.5. The final LNPs were characterized to determine the encapsulation efficiency, polydispersity index, and average particle size according to the analytical methods provided above. Analysis of average particle size, polydispersity (PDI), total RNA content and encapsulation efficiency of RNA are shown in Table 2.
To assess whether the editing was dose responsive, experiments were performed in vivo at various LNP dose levels. […]

[1] = pKa of amine lipid by TNS fluorescence; type: physicochemical; details: probe TNS (6-(p-toluidino)-2-naphthalenesulfonic acid sodium salt), unformulated amine lipid in ethanol, sodium phosphate buffers -9.0
Summary of the method: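 Unformulated amine lipid, about 100 μM final, in 0.1 M sodium phosphate buffers spanning pH 4.5–9.0 with TNS. Fluorescence read at ex 321/em 448 nm; normalized data fitted sigmoidally to give pKa.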

mouse TTR = assay: Serum TTR ELISA in mice after LNP delivery; type: in vivo; details: Table 3, guide G282, CD-1 female mice, 0.1 mpk i.v.; for Serum TTR: Exp. 1, 8, 9, 10; for Serum TTR % TSS: percentage of vehicle control (TSS)
Summary of the method: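 Female CD-1 mice received LNP at 0.1 mpk unless noted; serum was collected 6 or 7 days later. Total serum TTR was measured by mouse prealbumin ELISA at 10,000- and/or 2,500-fold dilution and is expressed as a percentage of vehicle control.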

mouse B2M gene = assay: In vivo editing in mouse liver, LNP with Cas9 mRNA and sgRNA G650, NGS; details: Table 3; guide G650; CD-1 female mice, 0.1 mpk i.v., liver at 6 or 7 days; Exp. 2-7
Experimental: as §1, §2, §3, §4, §5, §6, §7, §8

| SMILES | Editing Mean % Indel (mouse TTR gene) [%] | pKa [1] | Serum TTR (mouse TTR) [µg/mL] | Serum TTR % TSS (mouse TTR) [% TSS] | Editing Mean % Indel (mouse B2M gene) [%] |
| --- | --- | --- | --- | --- | --- |
| CCCCC/C=C\C/C=C\CCCCCCCC(=O)OCC(COC(=O)CCCCCCC/C=C\C/C=C\CCCCC)OC(=O)CCC(OC(=O)NCCN(C)CC)C1CCCCC1 (stereo not drawn) [Compound 41, 2-((4-cyclohexyl-4-(((2-(ethyl(methyl)amino)ethyl)carbamoyl)oxy)butanoyl)oxy) propane-1,3-diyl (9Z,9′Z,12Z,12′Z)-bis(octadeca-9,12-dienoate)] | 28.8 | 6.51 | 393 | 48 |  |
| CCCCC/C=C\C/C=C\CCCCCCCC(=O)OCC(COC(=O)CCCCCCC/C=C\C/C=C\CCCCC)OC(=O)NCCN(C)CC [Compound 114, 2-(((2-(ethyl(methyl)amino)ethyl)carbamoyl)oxy)propane-1,3-diyl (9Z,9′Z,12Z,12′Z)-bis(octadeca-9,12-dienoate), reference compound] | 0.8 | 6.93 | 637 | 78 |  |
| CCCCC/C=C\C/C=C\CCCCCCCC(=O)OCC(COC(=O)CCCCCCC/C=C\C/C=C\CCCCC)OC(=O)CCC(CCCCCCCCCCCC)OC(=O)OCCCN(C)CC (stereo not drawn) [Compound 3, 2-((4-(((3-(ethyl(methyl)amino)propoxy)carbonyl)oxy)hexadecanoyl)oxy)propane-1,3-diyl (9Z,9′Z,12Z,12′Z)-bis(octadeca-9,12-dienoate)] | 23.7 | 5.89 | 691 | 78 |  |
| CCCCC/C=C\C/C=C\CCCCCCCC(=O)OCC(COC(=O)CCCCCCC/C=C\C/C=C\CCCCC)OC(=O)CCCC(CCCCCCCCCCCC)OC(=O)NCCN(C)CC (stereo not drawn) [Compound 28, 2-((5-(((2-(ethyl(methyl)amino)ethyl)carbamoyl)oxy)heptadecanoyl)oxy) propane-1,3-diyl (9Z,9′Z,12Z,12′Z)-bis(octadeca-9,12-dienoate)] |  | 6.06 |  |  | 17.8 |
| CCCCC/C=C\C/C=C\CCCCCCCC(=O)OCC(COC(=O)CCCCCCC/C=C\C/C=C\CCCCC)OC(=O)CCCC(CCCCCCCCCCCC)OC(=O)NCC1CCCN1C (stereo not drawn) [Compound 29, 2-((5-((((1-methylpyrrolidin-2-yl)methyl)carbamoyl)oxy)heptadecanoyl)oxy) propane-1,3-diyl (9Z,9′Z,12Z,12′Z)-bis(octadeca-9,12-dienoate)] |  | 6.05 |  |  | 3.6 |
| CCCCC/C=C\C/C=C\CCCCCCCC(=O)OCC(COC(=O)CCCCCCC/C=C\C/C=C\CCCCC)OC(=O)CCC(CCCC)OC(=O)NCCN(C)CC (stereo not drawn) [Compound 42, 2-((4-(((2-(ethyl(methyl)amino)ethyl)carbamoyl)oxy)octanoyl)oxy)propane-1,3-diyl (9Z,9′Z,12Z,12′Z)-bis(octadeca-9,12-dienoate)] | 21.6 | 6.52 | 473 | 58 |  |
| CCCCC/C=C\C/C=C\CCCCCCCC(=O)OCC(COC(=O)CCCCCCC/C=C\C/C=C\CCCCC)OC(=O)CCC(CCCCCCCCCCCC)OC(=O)CCCN(CC)CC (stereo not drawn) [Compound 11, 2-((4-((4-(diethylamino)butanoyl)oxy)hexadecanoyl)oxy)propane-1,3-diyl (9Z,9′Z,12Z,12′Z)-bis(octadeca-9,12-dienoate)] |  | 5.6 |  |  | 9.2 |
| CCCCCC/C=C\COC(=O)CCCCCCCC(=O)OCC(COC(=O)CCCCCCCC(=O)OC/C=C\CCCCCC)OC(=O)CCC(CCCCCCCCCCCC)OC(=O)OCCCN(C)C (stereo not drawn) [Compound 22, O′1,O1-(2-((4-(((3-(dimethylamino)propoxy)carbonyl)oxy)hexadecanoyl)oxy)propane-1,3-diyl) 9,9′-di((Z)-non-2-en-1-yl) di(nonanedioate)] |  | 6.06 |  |  | 6.7 |
| CCCCC/C=C\C/C=C\CCCCCCCC(=O)OCC(COC(=O)CCC(CCCCCCCCCCCC)OC(=O)OCCCN(C)C)OC(=O)CCCCCCC/C=C\C/C=C\CCCCC (stereo not drawn) [Compound 30, 9-dodecyl-2-methyl-7,12-dioxo-6,8,13-trioxa-2-azahexadecane-15,16-diyl (9Z,9′Z,12Z,12′Z)-bis(octadeca-9,12-dienoate)] | 10.4 | 6.53 | 841 | 95 |  |
| CCCCC/C=C\C/C=C\CCCCCCCC(=O)OCC(COC(=O)CCCCCCC/C=C\C/C=C\CCCCC)OC(=O)CCC(CCCCCCCCCCCC)OC(=O)OC1CCN(CC)CC1 (stereo not drawn) [Compound 6, 2-((4-((((1-ethylpiperidin-4-yl)oxy)carbonyl)oxy)hexadecanoyl)oxy)propane-1,3-diyl (9Z,9′Z,12Z,12′Z)-bis(octadeca-9,12-dienoate)] |  | 5.37 |  |  | 0.4 |
| CCCCC/C=C\C/C=C\CCCCCCCC(=O)OCC(COC(=O)CCCCCCC/C=C\C/C=C\CCCCC)OC(=O)CCC(CCCCCCCCCCCCCCCC)OC(=O)NCC1CCCN1C (stereo not drawn) [Compound 21, 2-((4-((((1-methylpyrrolidin-2-yl)methyl)carbamoyl)oxy)icosanoyl)oxy)propane-1,3-diyl (9Z,9′Z,12Z,12′Z)-bis(octadeca-9,12-dienoate)] |  | 6.12 |  |  | 12.1 |
| CCCCC/C=C\C/C=C\CCCCCCCC(=O)OCC(COC(=O)CCCCCCC/C=C\C/C=C\CCCCC)OC(=O)CCC(CCCCCCCC)OC(=O)N(C)CCN(C)C (stereo not drawn) [Compound 38, 2-((4-(((2-(dimethylamino)ethyl)(methyl)carbamoyl)oxy)dodecanoyl)oxy) propane-1,3-diyl (9Z,9′Z,12Z,12′Z)-bis(octadeca-9,12-dienoate)] | 26.7 | 5.62 | 301 | 39 |  |
| CCCCC/C=C\C/C=C\CCCCCCCC(=O)OCC(COC(=O)CCCCCCC/C=C\C/C=C\CCCCC)OC(=O)CCC(CCCCCCCCCCCCCCCC)OC(=O)OCCCN(C)CC (stereo not drawn) [Compound 18, 2-((4-(((3-(ethyl(methyl)amino)propoxy)carbonyl)oxy)icosanoyl)oxy)propane-1,3-diyl (9Z,9′Z,12Z,12′Z)-bis(octadeca-9,12-dienoate)] |  | 5.83 |  |  | 4.5 |
| CCCCC/C=C\C/C=C\CCCCCCCC(=O)OCC(COC(=O)CCCCCCC/C=C\C/C=C\CCCCC)OC(=O)CCC(CCCCCCCCCCCC)OC(=O)OCCCCN(CC)CC (stereo not drawn) [Compound 14, 2-((4-(((4-(diethylamino)butoxy)carbonyl)oxy)hexadecanoyl)oxy)propane-1,3-diyl (9Z,9′Z,12Z,12′Z)-bis(octadeca-9,12-dienoate)] |  | 5.91 |  |  | 20.6 |
| CCCCCC/C=C\COC(=O)CCCCCCCC(=O)OCC(COC(=O)CCCCCCCC(=O)OC/C=C\CCCCCC)OC(=O)CCC(CCCCCCCCCCCC)OC(=O)NCCN(C)CC (stereo not drawn) [Compound 23, O′1,O1-(2-((4-(((2-(ethyl(methyl)amino)ethyl)carbamoyl)oxy)hexadecanoyl)oxy)propane-1,3-diyl) 9,9′-di((Z)-non-2-en-1-yl) di(nonanedioate)] |  | 6.19 |  |  | 7.3 |
